Paper PMC12518634, “The noncanonical function of liver-type phosphofructokinase potentiates the efficacy of HDAC inhibitors in cancer” (Signal Transduction and Targeted Therapy, 2025)
Where two headings read alike, the source gives them in different places.

Experiments:
1405R3 = test: High-throughput drug screen, CellTiter-Glo viability, 72 h; format: cell-based, human; design: AUC: scale not given here; conditions: 1405R3 DSRT analysis; for AUC: area under the dose-response curve; for MIN: lower asymptote of fitted dose-response curve; for SLOPE: slope of fitted dose-response curve; for EC50: 72 h, fitted dose-response curve, Min.Conc.tested 1, Max.Conc.tested 10000, read-out: EC50
Method in brief: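 Responses are drug sensitivity scores (efficacy cutoff ≥10), fitted from CellTiter-Glo luminescence. Each drug was given at five concentrations (10 to 0.001 μM, tenfold steps) in duplicate for 72 h. Cells were plated at 3000/well 24 h before dosing.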

783C-6 = test: as above; format: cell-based, human; design: AUC: scale not given here; conditions: for AUC: area under the dose-response curve; for EC50: 72 h, read-out: EC50
Method in brief: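 Cholangiocarcinoma cells were seeded at 3000/well in 384-well plates and dosed after 24 h. Drugs were tested at 10, 1, 0.1, 0.01 and 0.001 μM in duplicate for 72 h, with viability read by CellTiter-Glo luminescence.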

[1] = 783C-6 DSRT analysis, DSS calculated from the dose-response curve
[2] = 783C-6 DSRT analysis, MIN of the fitted dose-response curve
[3] = 783C-6 DSRT analysis, slope of the fitted dose-response curve
[4] = 783C-6 cells, DSRT analysis, CellTiter-Glo viability, concentrations tested 1 to 10000 (unit inferred), GI50
[5] = 783C-6 cells, DSS of DSRT analysis
[6] = 783C-6 cells, minimum of dose-response curve
[7] = 783C-6 cells, slope of fitted dose-response curve

Compound | DSS (1405R3; DSS) | AUC (1405R3) | MIN (1405R3) | SLOPE (1405R3) | DSS (783C-6; [1]) | MIN (783C-6; [2]) | AUC (783C-6; 783C-6 DSRT analysis) | SLOPE (783C-6; [3]) | EC50 (1405R3; CellTiter-Glo viability, GI50) | DSS (1405R3; drug sensitivity score) | EC50 (783C-6; [4]) | DSS (783C-6; [5]) | AUC (783C-6; 783C-6 cells) | MIN (783C-6; [6]) | SLOPE (783C-6; [7]) | EC50 (783C-6; Homo sapiens) | EC50 (1405R3; Homo sapiens, CellTiter-Glo) | EC50 (1405R3; CellTiter-Glo) | EC50 (783C-6; 783C-6 DSRT analysis, CellTiter-Glo viability, fitted dose-response curve, Min.Conc.tested 1, Max.Conc.tested 10000) | EC50 (1405R3; Homo sapiens, CellTiter-Glo viability, GI50)
O=C(O)CCNc1cc(N2CCc3ccccc3CC2)nc(-c2ccccn2)n1 [GSK J1] | 0 | 0.1 | 100 | -0.1 | 0 | 99.9 | 0 | -1.3 |  |  |  |  |  |  |  |  |  |  |  | 
COc1ccc(N(C)c2nc(C)nc3ccccc23)cc1OCCCC(=O)NO [SKLB-23bb] |  | 79.5 | 33.2 | -0.8 |  |  |  |  | 731 nM | 8.2 | 60.2 nM | 13.8 | 111 | 50 | -2.5 |  |  |  |  | 
O=C(O)[C@]1(Cc2cccc(Nc3nccs3)n2)CC[C@@H](Oc2cccc(Cl)c2F)CC1 [MK-5108] | 0 | 0.5 | 98.2 |  | 4.3 | 74.1 | 61.3 |  |  |  |  |  |  |  |  | 22.8 nM |  |  |  | 
Cc1ccc(C(=O)Nc2ccc(CN3CCN(C)CC3)c(C(F)(F)F)c2)cc1C#Cc1cnc2cccnn12 [Ponatinib] |  | 16.5 | 87 |  |  |  |  |  |  | 0.6 |  | 7 | 59.9 | 66.9 |  | 155 nM |  |  |  | 
COc1cc(/C=C/C(=O)CC(=O)/C=C/c2ccc(O)c(OC)c2)ccc1O [Curcumin] | 0 | 1 | 97.3 |  | 0 | 96.8 | 2.1 |  |  |  |  |  |  |  |  |  |  |  |  | 
Nc1ccccc1NC(=O)c1ccc(CNC(=O)OCc2cccnc2)cc1 [Entinostat] | 10 | 87.7 | 5.2 |  | 9.1 | 8.3 | 78 |  |  |  |  |  |  |  |  | 1420 nM | 1200 nM |  |  | 
C#Cc1cccc(Nc2ncnc3cc4c(cc23)OCCOCCOCCO4)c1 [Icotinib] | 1.4 | 21.6 | 84.3 |  | 0 | 90.4 | 16.8 |  |  |  |  |  |  |  |  |  |  |  |  | 
CC(C)N(CCCNC(=O)Nc1ccc(C(C)(C)C)cc1)C[C@H]1O[C@@H](n2ccc3c(N)ncnc32)[C@H](O)[C@@H]1O [EPZ004777] | 0 | 0.5 | 98.8 |  | 0 | 97.4 | 0.7 |  |  |  |  |  |  |  |  |  |  |  |  | 
Cl.Cn1cc(C(=O)Nc2ccc([C@@H]3C[C@H]3NCC3CC3)cc2)cn1 [T-3775440 HCl] |  | 0.3 | 97.3 | -2.5 |  |  |  |  |  | 0 |  | 0 | 15 | 90.4 | -0.1 |  |  |  |  | 
O=C(NO)c1ccc(CC(=O)N(CCO)c2ccccc2)cc1 [HPOB] | 0 | 0.1 | 100 | -0.1 | 0 | 98.7 | 0.4 | -1 |  |  |  |  |  |  |  |  |  |  |  | 
C[C@@H]1COC(Nc2ccc3ncnc(Nc4ccc(OCc5nccs5)c(Cl)c4)c3c2)=N1 [Varlitinib] |  | 11.5 | 91.8 |  |  |  |  |  |  | 0 |  | 1.5 | 22.8 | 79.7 |  |  |  |  |  | 
CN1CCc2c(c3ccccc3n2Cc2ccc(C(=O)NO)cc2)C1 [Tubastatin A] |  | 8.2 | 92.6 |  |  |  |  |  |  | 0 |  | 0 | 3.2 | 92.9 |  |  |  |  |  | 
Clc1ccc(N/N=C(\c2ccccc2)c2ccccn2)nc1 [JIB-04] | 8.1 | 73.8 | 34.7 | -1.2 | 4.8 | 18.2 | 43.9 | -2.5 |  |  |  |  |  |  |  |  |  | 766 nM | 2960 nM | 
COc1ccc(Cn2ccc3ccc(C(=O)NO)cc32)cc1 [PCI-34051] |  | 0.1 | 100 | -0.1 |  |  |  |  |  | 0 |  | 0 | 2 | 95.4 | -0.7 |  |  |  |  | 
COc1cc2c(Oc3ccc4[nH]c(C)cc4c3F)ncnc2cc1OCCCN1CCCC1 [Cediranib] | 5.6 | 50.5 | 9.6 |  | 2.4 | 57.8 | 23.3 |  |  |  |  |  |  |  |  | 2850 nM | 2810 nM |  |  | 
CCCC(CCC)C(=O)O [Divalproex Sodium] | 0 | 0.1 | 100 |  | 0 | 96.3 | 0.4 |  |  |  |  |  |  |  |  |  |  |  |  | 
Cc1csc(-c2nnc(Nc3ccc(Oc4ncccc4-c4ccnc(N)n4)cc3)c3ccccc23)c1 [AMG-900] | 0.2 | 29 | 82.3 |  | 4.1 | 63.4 | 52.5 |  |  |  |  |  |  |  |  | 483 nM |  |  |  | 
CC(C)N(CCCNC(=O)Nc1ccc(C(C)(C)C)cc1)C[C@H]1O[C@@H](n2cc(Br)c3c(N)ncnc32)[C@H](O)[C@@H]1O [SGC 0946] |  | 6.1 | 93.6 |  |  |  |  |  |  | 0 |  | 0 | 19.5 | 94.1 |  |  |  |  |  | 
O=C(CCCCCN1C(=O)c2cccc3cccc(c23)C1=O)NO [Scriptaid] |  | 77.8 | 11.5 |  |  |  |  |  |  | 9 |  | 8.6 | 74.4 | 3.2 |  | 1710 nM |  |  |  | 1330 nM
O=S(=O)(Cl)c1ccc(-c2ccccc2)cc1 [Biphenyl-4-sulfonyl chloride] | 0 | 6.3 | 94 | -0.2 | 0 | 88.2 | 18.3 | -0.1 |  |  |  |  |  |  |  |  |  |  |  | 
CN1CCc2c(c3ccccc3n2Cc2ccc(C(=O)NO)cc2)C1.O=C(O)C(F)(F)F [Tubastatin A TFA] |  | 17.4 | 88.8 | -0.1 |  |  |  |  |  | 0 |  | 0 | 24.4 | 86.5 | -0.1 |  |  |  |  | 
TC-H 106 |  | 47 | 75.6 | -0.4 |  |  |  |  |  | 2.6 | 923 nM | 5.3 | 61.5 | 48.5 | -0.6 |  |  |  |  | 
